Molecular target: T1, EGFR (Homo sapiens, UniProt P00533)
T1 construct: A549 cells were chosen due to their elevated expression of EGFR; endogenous in cells; host or cells: A549
Assay: Western blot of EGF-induced EGFR phosphorylation in A549 cells
Format: cell-based
Procedure: A549 cells were chosen due to their elevated expression of EGFR.
A549 cells were seeded into a 6-well plate at a concentration of 1×10^5 cells/well. After 12 h attachment at 37° C. and 5% CO2, the cells were starved overnight in serum-reduced DMEM followed by treatment with different concentration of M-2-2 for 4 h. […] Subsequently, the cells were incubated on ice for 10 min and centrifuged at 14,000×g at 4° C. for 10 min. […] The experiments were conducted in triplicates and repeated for three times.

T1 sequence (P00533 25-1210): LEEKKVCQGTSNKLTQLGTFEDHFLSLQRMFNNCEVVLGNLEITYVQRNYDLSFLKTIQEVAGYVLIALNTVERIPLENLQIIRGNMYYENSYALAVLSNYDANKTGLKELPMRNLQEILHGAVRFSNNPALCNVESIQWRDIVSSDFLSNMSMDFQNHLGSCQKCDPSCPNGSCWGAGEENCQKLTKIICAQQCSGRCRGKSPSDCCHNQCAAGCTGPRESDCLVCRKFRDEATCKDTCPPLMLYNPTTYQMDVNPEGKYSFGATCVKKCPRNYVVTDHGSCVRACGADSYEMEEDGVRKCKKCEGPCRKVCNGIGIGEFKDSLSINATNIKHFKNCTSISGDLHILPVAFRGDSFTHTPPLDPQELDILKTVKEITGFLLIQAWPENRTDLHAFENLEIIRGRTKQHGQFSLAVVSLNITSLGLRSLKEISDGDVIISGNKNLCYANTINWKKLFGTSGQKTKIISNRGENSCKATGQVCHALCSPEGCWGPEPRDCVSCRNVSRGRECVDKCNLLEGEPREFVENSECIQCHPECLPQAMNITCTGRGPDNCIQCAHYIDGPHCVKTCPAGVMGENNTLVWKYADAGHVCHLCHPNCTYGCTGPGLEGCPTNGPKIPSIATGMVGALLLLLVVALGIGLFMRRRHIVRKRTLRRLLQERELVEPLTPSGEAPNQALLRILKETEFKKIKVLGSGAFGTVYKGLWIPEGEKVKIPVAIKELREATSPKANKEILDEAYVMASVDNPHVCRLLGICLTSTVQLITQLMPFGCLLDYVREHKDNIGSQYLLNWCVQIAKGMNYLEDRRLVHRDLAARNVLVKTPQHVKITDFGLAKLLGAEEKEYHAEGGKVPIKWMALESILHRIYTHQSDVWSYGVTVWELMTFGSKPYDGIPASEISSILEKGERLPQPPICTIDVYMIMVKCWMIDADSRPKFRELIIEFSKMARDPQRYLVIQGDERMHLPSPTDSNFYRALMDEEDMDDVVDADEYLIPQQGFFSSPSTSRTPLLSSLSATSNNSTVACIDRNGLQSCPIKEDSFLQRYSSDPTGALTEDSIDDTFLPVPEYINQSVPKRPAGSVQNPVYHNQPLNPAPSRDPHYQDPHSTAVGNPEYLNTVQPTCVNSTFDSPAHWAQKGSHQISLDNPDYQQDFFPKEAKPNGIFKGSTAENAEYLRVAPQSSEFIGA

CC[C@H]1CN(C(=O)CCC2CCCCC2)CC(=O)N[C@@H](CC)CN(C(=O)Cc2ccc3c(c2)OCO3)CC(=O)N[C@@H](CC(C)C)CN(CC(N)=O)C(=O)CCSCc2ccc(cc2)C(=O)N[C@@H](CC(C)C)CN(C(=O)Cc2ccc3c(c2)OCO3)CC(=O)N1 [M-2-2] was tested, and the “effect on phosphorylation level of EGFR (P-EGFR) in the presence of EGF” value (starved A549 cells, 20 μM, 4 h pretreatment, then 100 ng/mL EGF, western blot, P-EGFR/GAPDH) was “enhance the activation of EGFR” and the “effect on downstream signal transduction of EGF stimulated EGFR” value (western blot with anti-phosphorylated AKT and ERK, concentration not given) was “enhance”.
